Results reported in the supplement of paper PMC10307832.

Columns and labels:
Experiment in all cases: relative viability (nuclei count vs DMSO), 5 days (fraction); higher = more cells survive
[1] = compound: CC[C@H](Nc1ncnc2[nH]cnc12)c1nc2cccc(F)c2c(=O)n1-c1ccccc1 [Idelalisib] + CC(=O)c1c(C)c2cnc(Nc3ccc(N4CCNCC4)cn3)nc2n(C2CCCC2)c1=O [Palbociclib] (partner 0.5 µM)
Summary of the method: (§1)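 Relative viability divides the nuclei count in treated wells by that in vehicle wells. Lung cancer cell lines were seeded in 1536-well plates, dosed by pin tool the next day, and fixed and stained after 5 days in one step with final 0.05% Triton X-100, 1% formaldehyde and 1 ug/ml Hoechst. Dosing was a single drug or a fixed anchor-drug dose plus five library-drug doses (not always all listed) in √10 steps, and values are medians of duplicate plates imaged at 4×.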

[2] = compound: Nc1nc2[nH]cc(CCc3ccc(C(=O)N[C@@H](CCC(=O)O)C(=O)O)cc3)c2c(=O)[nH]1 [Pemetrexed] + CC1(C)CCC(c2ccc(Cl)cc2)=C(CN2CCN(c3ccc(C(=O)NS(=O)(=O)c4ccc(N[C@H](CCN5CCOCC5)CSc5ccccc5)c(S(=O)(=O)C(F)(F)F)c4)cc3)CC2)C1 [Navitoclax] (partner 0.5 µM)
Summary of the method: as §1

[3] = compound: Nc1nc2[nH]cc(CCc3ccc(C(=O)N[C@@H](CCC(=O)O)C(=O)O)cc3)c2c(=O)[nH]1 [Pemetrexed] + Nc1ncn([C@H]2C[C@H](O)[C@@H](CO)O2)c(=O)n1 [Decitabine] (partner 2 µM)
Summary of the method: as §1

[4] = compound: Nc1nc2[nH]cc(CCc3ccc(C(=O)N[C@@H](CCC(=O)O)C(=O)O)cc3)c2c(=O)[nH]1 [Pemetrexed] + CCNC(=O)c1noc(-c2cc(C(C)C)c(O)cc2O)c1-c1ccc(CN2CCOCC2)cc1 [Luminespib] (partner 0.01 µM)
Summary of the method: as §1

Row | Cell Line | relative viability ([1]; first compound 0.04 µM) | relative viability ([1]; first compound 0.1265 µM) | relative viability ([1]; first compound 0.4 µM) | relative viability ([1]; first compound 1.265 µM) | relative viability ([1]; first compound 4 µM) | relative viability ([2]; first compound 0.002 µM) | relative viability ([2]; first compound 0.006325 µM) | relative viability ([2]; first compound 0.02 µM) | relative viability ([2]; first compound 0.06325 µM) | relative viability ([2]; first compound 0.2 µM) | relative viability ([3]; first compound 0.002 µM) | relative viability ([3]; first compound 0.006325 µM) | relative viability ([3]; first compound 0.02 µM) | relative viability ([3]; first compound 0.06325 µM) | relative viability ([3]; first compound 0.2 µM) | relative viability ([4]; first compound 0.002 µM) | relative viability ([4]; first compound 0.006325 µM) | relative viability ([4]; first compound 0.02 µM) | relative viability ([4]; first compound 0.06325 µM) | relative viability ([4]; first compound 0.2 µM)
1 | NCI-H1734 | 0.38 | 0.397 | 0.301 | 0.303 | 0.31 | 0.826 | 0.817 | 0.933 | 0.813 | 0.656 | 0.485 | 0.472 | 0.52 | 0.517 | 0.427 | 0.208 | 0.192 | 0.219 | 0.206 | 0.218
2 | NCI-H1755 | 0.462 | 0.422 | 0.444 | 0.437 | 0.465 | 0.94 | 0.918 | 1.03 | 0.992 | 0.898 | 0.708 | 0.738 | 0.734 | 0.693 | 0.695 | 0.421 | 0.594 | 0.631 | 0.415 | 0.437
3 | NCI-H1792 | 0.632 | 0.668 | 0.557 | 0.668 | 0.55 | 0.59 | 0.823 | 0.579 | 0.564 | 0.585 | 0.506 | 0.532 | 0.527 | 0.507 | 0.56 | 0.578 | 0.51 | 0.539 | 0.476 | 0.45
4 | NCI-H1793 | 0.331 | 0.27 |  | 0.298 | 0.26 | 0.616 | 0.41 | 0.55 | 0.421 | 0.416 | 0.512 | 0.449 | 0.583 | 0.512 | 0.528 | 0.397 | 0.201 | 0.152 | 0.118 | 0.237
5 | NCI-H1915 | 0.603 | 0.482 | 0.5 | 0.577 | 0.495 | 0.773 | 0.757 | 0.772 | 0.764 | 0.783 | 0.263 | 0.258 | 0.243 | 0.25 | 0.26 | 0.818 | 0.857 | 0.84 | 0.836 | 0.781
6 | NCI-H1944 | 0.36 | 0.315 | 0.297 | 0.292 | 0.283 | 0.945 | 1.01 | 1.03 | 1.08 | 1.01 | 0.378 | 0.37 | 0.405 | 0.427 | 0.458 |  | 0.752 | 0.72 | 0.734 | 0.69
7 | NCI-H1975 | 0.586 | 0.653 | 0.429 | 0.583 | 0.406 |  | 1.19 | 1.1 | 1.1 | 0.731 | 0.322 | 0.403 | 0.378 | 0.291 | 0.223 | 0.169 | 0.295 | 0.177 | 0.195 | 0.169
8 | NCI-H1993 | 0.642 | 0.743 | 0.49 | 0.523 | 0.491 | 0.808 | 0.832 | 0.859 | 0.917 | 0.804 | 0.619 | 0.661 | 0.622 | 0.576 | 0.461 | 0.432 | 0.623 | 0.868 | 0.913 | 0.41
9 | NCI-H2009 | 0.259 | 0.224 | 0.176 | 0.202 | 0.13 | 1.15 | 1.11 | 1.18 | 1.12 | 1.04 | 0.372 | 0.307 | 0.416 | 0.355 | 0.342 | 0.94 | 0.995 | 1.04 | 0.991 | 1.03
10 | NCI-H2023 | 0.368 | 0.492 | 0.295 | 0.295 | 0.295 | 0.972 | 1.02 | 0.991 | 0.942 | 0.459 | 0.181 | 0.206 | 0.246 | 0.173 | 0.125 | 0.717 | 0.656 | 0.932 | 0.483 | 0.227
11 | NCI-H2085 | 0.466 | 0.445 | 0.483 | 0.422 | 0.464 | 1.05 | 1.18 | 1.07 | 1.12 | 1.15 | 0.584 | 0.513 | 0.53 | 0.527 | 0.642 | 0.386 | 0.304 | 0.449 | 0.414 | 0.427
12 | NCI-H2087 | 0.216 | 0.173 | 0.15 | 0.223 | 0.169 | 0.946 | 0.951 | 0.951 | 0.749 | 0.746 | 0.268 | 0.237 | 0.332 | 0.238 | 0.262 | 0.206 | 0.204 | 0.243 | 0.152 | 0.136
13 | NCI-H2126 | 0.364 | 0.369 | 0.366 | 0.327 | 0.358 | 0.828 | 0.827 | 0.882 | 0.833 | 0.82 | 0.55 | 0.588 | 0.569 | 0.608 | 0.567 | 0.827 | 0.96 | 0.89 | 0.883 | 0.831
14 | NCI-H2170 | 0.398 | 0.434 | 0.384 | 0.347 | 0.336 | 0.538 | 0.587 | 0.663 | 0.662 | 0.5 | 0.436 | 0.48 | 0.458 | 0.462 | 0.459 | 0.684 | 0.861 | 0.709 | 0.749 | 0.583
15 | NCI-H2347 | 0.48 | 0.453 | 0.445 | 0.42 | 0.286 | 0.659 | 0.805 | 0.776 | 0.619 | 0.391 | 0.604 | 0.594 | 0.657 | 0.619 | 0.49 | 0.0507 | 0.281 | 0.551 | 0.55 | 0.381
